Values of other authors in paper PMC6447718, “PACAP-38 and PACAP(6–38) Degranulate Rat Meningeal Mast Cells via the Orphan MrgB3-Receptor” (Frontiers in Cellular Neuroscience, 2019).
Entries after “also recorded” stand apart in the source; their conditions may differ.

Experiments:
[1] = system: PAC1-receptor; settings: relative to PACAP; ref Miyata et al., 1989, 1990; Harmar et al., 1998; cited from earlier work
Source text: Pituitary adenylate cyclase-activating peptide-38 (PACAP-38) is a 38-amino acid neuropeptide located in both sensory and parasympathetic perivascular nerve fibers (Moller et al., [1993]; Mulder et al., [1994]). A C-terminal truncated 27-amino acid (PACAP-27) version is endogenously present as well but is less abundant (Miyata et al., [1990]; Arimura et al., [1991]; Ogi et al., [1993]). […] At present, three PACAP-receptors have been identified: PA ... || Several different splice variants of the PAC1-receptor have been identified in rats. Splice sites in the extracellular N-terminal domain and the third intracellular loop account for fine tuning of ligand affinity and signal transduction through adenylate cyclase or PLC activation (Deutsch and Sun, [1992]; Spengler et al., [1993]).

[2] = system: VPAC1-receptor; parameters: method as in Harmar et al., 2012; settings: PACAP-38, PACAP-27 and VIP compared; ref Harmar et al., 2012; cited from earlier work
[3] = system: calcitonin gene-related peptide (CGRP) release from the trigeminal nucleus caudalis; settings: ref Jansen-Olesen et al., 2014; cited from earlier work
Source text: Future studies will have to rule out if MrgB3-receptors are involved in PACAP- ...

[4] = system: VPAC2-receptor; parameters: method as in Harmar et al., 2012; settings: PACAP-38, PACAP-27 and VIP compared; ref Harmar et al., 2012; cited from earlier work
[5] = system: migraine patients; settings: migraineurs; ref Rahmann et al., 2008; cited from earlier work
Source text: Pituitary adenylate cyclase-activating peptide-38 (PACAP-38) is a 38-amino acid neuropeptide located in both sensory and parasympathetic perivascular nerve fibers (Moller et al., [1993]; Mulder et al., [1994]). A C-terminal truncated 27-amino acid (PACAP-27) version is endogenously present as well but is less abundant (Miyata et al., [1990]; Arimura et al., [1991]; Ogi et al., [1993]). […] Degranulation of mast cells can be induced either by an allergen-IgE-dependent mechanism or via an IgE-independent mechanism. The latter mechanism can be activated by a group of molecules known as basic secretagogues.

[6] = system: VPAC2; settings: ref Spengler et al., 1993; Pantaloni et al., 1996; cited from earlier work
Source text: (§1) Pituitary adenylate cyclase-activating peptide-38 (PACAP-38) is a 38-amino acid neuropeptide located in both sensory and parasympathetic perivascular nerve fibers (Moller et al., [1993]; Mulder et al., [1994]). A C-terminal truncated 27-amino acid (PACAP-27) version is endogenously present as well but is less abundant (Miyata et al., [1990]; Arimura et al., [1991]; Ogi et al., [1993]).

[7] = system: VPAC1; settings: ref Spengler et al., 1993; Pantaloni et al., 1996; cited from earlier work
Source text: as §1

[8] = system: rat peritoneal mast cells; settings: rat peritoneal mast cells; ref Baun et al., 2012; cited from earlier work
Source text: Inspired by clinical findings, we have previously characterized the degranulating effect of various PACAP-analogues on isolated rat peritoneal mast cells. Based on the expectation that degranulation is mediated through the PAC1-receptor, we found an unpredicted order of potency (Baun et al., [2012]).

Substance: vasoactive intestinal peptide [VIP]
- binding to the PAC1-receptor, times lower than PACAP [1]: 1,000 times
- profile on VPAC1-receptor (result in words) [2]: equipotent
- release of CGRP from the trigeminal nucleus caudalis (result in words) [3]: neither VIP, PACAP-27 nor maxadilan, mediated the release
- profile on VPAC2-receptor (result in words) [4]: equipotent
- migraine attacks / headache after infusion (result in words) [5]: only induces a mild headache and no migraine-like attacks in migraineurs; also recorded: does not provoke migraine headache
- affinity to VPAC2 relative to PACAP (result in words) [6]: equals that of PACAP
- affinity to VPAC1 relative to PACAP (result in words) [7]: equals that of PACAP
- peritoneal mast cell degranulation (result in words) [8]: not PACAP-27 and VIP, caused degranulation; also recorded: weak degranulating effect
